From patent publication US11547697B2, “Heterocyclic compounds and uses thereof” (MILLENNIUM PHARMACEUTICALS, INC., priority 2009, dated 2023)
pIC50: −log10 of the molar value. Like-named read-outs stand apart in the source and are kept apart here.

Assays:
Format in all cases: biochemical
p110α/p85α = p110α/p85α (Homo sapiens (Human), UniProt P42336); experiment: PI 3-Kinase (human) HTRF assay, p110α/p85α
p110γ = p110γ (Homo sapiens (Human), UniProt P48736); experiment: PI 3-Kinase (human) HTRF assay, p110γ
p110δ/p85α = p110δ/p85α (Homo sapiens (Human), UniProt O00329); experiment: PI 3-Kinase (human) HTRF assay, p110δ/p85α
p110β/p85α = p110β/p85α (Homo sapiens (Human), UniProt P42338); experiment: PI 3-Kinase (human) HTRF assay, p110β/p85α
[1] = in vitro, read-out: PI3K α IC50
[2] = in vitro, read-out: PI3K γ IC50
[3] = in vitro, read-out: PI3K δ IC50
[4] = in vitro, read-out: PI3K β IC50

p110γ, sequence (P48736 whole entry): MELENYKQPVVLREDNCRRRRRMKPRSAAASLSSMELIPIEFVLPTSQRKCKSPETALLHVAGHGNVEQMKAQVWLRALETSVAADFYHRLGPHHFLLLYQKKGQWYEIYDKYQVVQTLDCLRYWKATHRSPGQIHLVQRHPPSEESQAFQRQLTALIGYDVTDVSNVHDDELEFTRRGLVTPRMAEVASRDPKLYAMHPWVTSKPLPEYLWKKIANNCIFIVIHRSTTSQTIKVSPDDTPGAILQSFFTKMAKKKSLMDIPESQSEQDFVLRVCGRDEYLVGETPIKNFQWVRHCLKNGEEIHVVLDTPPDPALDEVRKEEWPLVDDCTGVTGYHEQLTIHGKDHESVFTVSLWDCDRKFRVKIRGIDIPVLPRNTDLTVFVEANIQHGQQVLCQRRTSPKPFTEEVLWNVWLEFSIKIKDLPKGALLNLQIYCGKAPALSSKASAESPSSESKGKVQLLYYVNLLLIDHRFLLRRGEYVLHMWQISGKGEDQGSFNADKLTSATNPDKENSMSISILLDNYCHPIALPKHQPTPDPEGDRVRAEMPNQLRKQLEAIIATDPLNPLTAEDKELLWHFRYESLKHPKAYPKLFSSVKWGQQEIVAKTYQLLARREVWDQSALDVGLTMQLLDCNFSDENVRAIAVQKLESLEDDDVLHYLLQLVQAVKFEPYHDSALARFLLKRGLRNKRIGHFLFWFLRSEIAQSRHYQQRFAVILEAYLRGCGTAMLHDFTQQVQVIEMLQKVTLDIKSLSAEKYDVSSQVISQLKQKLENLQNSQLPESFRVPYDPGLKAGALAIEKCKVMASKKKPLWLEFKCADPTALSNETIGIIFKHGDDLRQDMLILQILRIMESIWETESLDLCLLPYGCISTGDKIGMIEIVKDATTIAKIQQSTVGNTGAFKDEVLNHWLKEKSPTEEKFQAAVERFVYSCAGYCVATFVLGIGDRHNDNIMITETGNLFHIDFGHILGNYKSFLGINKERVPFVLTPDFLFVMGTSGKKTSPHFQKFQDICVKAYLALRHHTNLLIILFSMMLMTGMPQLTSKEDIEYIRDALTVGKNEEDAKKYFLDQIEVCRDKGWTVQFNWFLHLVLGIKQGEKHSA
p110δ/p85α, sequence (O00329 whole entry): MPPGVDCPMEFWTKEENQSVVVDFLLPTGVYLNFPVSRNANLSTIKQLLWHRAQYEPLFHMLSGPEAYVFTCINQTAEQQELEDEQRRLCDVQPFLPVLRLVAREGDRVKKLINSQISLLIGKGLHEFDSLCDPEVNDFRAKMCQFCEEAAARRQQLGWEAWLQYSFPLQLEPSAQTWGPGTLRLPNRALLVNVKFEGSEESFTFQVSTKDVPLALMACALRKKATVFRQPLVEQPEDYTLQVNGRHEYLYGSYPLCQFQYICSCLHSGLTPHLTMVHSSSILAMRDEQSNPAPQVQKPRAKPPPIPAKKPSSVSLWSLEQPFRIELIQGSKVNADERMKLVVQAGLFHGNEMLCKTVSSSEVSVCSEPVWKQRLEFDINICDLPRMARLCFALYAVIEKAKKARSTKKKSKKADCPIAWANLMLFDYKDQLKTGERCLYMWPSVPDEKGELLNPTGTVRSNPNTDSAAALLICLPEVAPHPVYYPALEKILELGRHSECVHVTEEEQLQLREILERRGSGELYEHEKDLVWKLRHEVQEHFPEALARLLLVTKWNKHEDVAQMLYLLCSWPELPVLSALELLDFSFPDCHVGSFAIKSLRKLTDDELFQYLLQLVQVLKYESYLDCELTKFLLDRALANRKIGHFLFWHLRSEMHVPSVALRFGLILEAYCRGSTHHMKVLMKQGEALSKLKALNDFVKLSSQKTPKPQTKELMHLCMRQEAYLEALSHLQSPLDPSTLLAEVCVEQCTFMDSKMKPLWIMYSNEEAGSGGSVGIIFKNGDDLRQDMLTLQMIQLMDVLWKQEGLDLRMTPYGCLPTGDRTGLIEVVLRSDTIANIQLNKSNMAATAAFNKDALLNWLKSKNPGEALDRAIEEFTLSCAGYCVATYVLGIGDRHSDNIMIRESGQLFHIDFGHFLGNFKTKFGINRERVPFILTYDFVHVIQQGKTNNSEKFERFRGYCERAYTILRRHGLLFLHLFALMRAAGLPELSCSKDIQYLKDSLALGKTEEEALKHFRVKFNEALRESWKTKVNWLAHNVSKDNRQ
p110δ/p85α, sequence (P27986 whole entry partner): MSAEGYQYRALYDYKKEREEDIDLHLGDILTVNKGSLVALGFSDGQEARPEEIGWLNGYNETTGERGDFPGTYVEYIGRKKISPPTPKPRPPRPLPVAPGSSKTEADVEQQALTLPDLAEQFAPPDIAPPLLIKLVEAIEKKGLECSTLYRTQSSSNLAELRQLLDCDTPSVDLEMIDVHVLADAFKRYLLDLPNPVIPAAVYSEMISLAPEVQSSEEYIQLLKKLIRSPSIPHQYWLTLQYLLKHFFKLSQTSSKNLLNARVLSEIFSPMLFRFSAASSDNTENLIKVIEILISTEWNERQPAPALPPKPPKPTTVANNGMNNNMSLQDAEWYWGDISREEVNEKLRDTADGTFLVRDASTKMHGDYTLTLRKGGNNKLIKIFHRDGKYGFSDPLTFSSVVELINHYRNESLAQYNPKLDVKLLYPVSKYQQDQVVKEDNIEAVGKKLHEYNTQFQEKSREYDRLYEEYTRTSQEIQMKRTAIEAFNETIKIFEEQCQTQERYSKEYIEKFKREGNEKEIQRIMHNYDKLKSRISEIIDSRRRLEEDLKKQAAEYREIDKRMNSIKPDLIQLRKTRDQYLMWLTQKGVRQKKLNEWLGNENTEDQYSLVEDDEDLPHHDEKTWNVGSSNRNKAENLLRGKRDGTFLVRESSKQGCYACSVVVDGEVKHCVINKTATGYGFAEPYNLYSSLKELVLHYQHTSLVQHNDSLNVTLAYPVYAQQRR
p110α/p85α, sequence (P42336 whole entry): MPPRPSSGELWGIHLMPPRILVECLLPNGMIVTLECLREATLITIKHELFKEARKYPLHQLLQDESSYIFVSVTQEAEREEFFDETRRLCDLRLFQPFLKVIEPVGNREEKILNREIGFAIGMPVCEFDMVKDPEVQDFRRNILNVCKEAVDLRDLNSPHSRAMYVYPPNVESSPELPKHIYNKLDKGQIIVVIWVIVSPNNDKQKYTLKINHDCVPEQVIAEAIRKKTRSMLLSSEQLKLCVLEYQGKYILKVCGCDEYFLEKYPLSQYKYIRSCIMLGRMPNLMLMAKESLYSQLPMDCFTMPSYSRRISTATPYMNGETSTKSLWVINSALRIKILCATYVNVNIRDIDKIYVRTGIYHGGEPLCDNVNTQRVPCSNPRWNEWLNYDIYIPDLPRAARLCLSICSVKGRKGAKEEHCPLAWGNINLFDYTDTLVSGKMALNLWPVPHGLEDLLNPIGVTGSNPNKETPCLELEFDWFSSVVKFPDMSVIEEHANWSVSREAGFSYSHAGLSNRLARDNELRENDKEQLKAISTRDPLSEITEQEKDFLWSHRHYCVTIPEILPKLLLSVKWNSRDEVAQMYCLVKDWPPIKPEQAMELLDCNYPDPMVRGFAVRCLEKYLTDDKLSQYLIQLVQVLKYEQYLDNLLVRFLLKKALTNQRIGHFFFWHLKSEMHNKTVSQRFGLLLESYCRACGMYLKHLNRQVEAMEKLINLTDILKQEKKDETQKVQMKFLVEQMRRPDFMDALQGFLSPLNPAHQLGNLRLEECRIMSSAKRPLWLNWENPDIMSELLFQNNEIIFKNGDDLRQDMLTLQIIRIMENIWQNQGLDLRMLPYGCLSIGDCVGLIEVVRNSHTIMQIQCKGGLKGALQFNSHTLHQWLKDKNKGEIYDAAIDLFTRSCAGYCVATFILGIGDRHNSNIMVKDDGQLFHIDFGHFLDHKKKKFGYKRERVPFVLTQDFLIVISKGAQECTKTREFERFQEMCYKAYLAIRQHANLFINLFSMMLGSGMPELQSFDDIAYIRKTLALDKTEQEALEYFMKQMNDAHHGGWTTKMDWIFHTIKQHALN
p110α/p85α, sequence (P27986 whole entry partner): as the sequence (P27986 whole entry partner) above
p110β/p85α, sequence (P42338 whole entry): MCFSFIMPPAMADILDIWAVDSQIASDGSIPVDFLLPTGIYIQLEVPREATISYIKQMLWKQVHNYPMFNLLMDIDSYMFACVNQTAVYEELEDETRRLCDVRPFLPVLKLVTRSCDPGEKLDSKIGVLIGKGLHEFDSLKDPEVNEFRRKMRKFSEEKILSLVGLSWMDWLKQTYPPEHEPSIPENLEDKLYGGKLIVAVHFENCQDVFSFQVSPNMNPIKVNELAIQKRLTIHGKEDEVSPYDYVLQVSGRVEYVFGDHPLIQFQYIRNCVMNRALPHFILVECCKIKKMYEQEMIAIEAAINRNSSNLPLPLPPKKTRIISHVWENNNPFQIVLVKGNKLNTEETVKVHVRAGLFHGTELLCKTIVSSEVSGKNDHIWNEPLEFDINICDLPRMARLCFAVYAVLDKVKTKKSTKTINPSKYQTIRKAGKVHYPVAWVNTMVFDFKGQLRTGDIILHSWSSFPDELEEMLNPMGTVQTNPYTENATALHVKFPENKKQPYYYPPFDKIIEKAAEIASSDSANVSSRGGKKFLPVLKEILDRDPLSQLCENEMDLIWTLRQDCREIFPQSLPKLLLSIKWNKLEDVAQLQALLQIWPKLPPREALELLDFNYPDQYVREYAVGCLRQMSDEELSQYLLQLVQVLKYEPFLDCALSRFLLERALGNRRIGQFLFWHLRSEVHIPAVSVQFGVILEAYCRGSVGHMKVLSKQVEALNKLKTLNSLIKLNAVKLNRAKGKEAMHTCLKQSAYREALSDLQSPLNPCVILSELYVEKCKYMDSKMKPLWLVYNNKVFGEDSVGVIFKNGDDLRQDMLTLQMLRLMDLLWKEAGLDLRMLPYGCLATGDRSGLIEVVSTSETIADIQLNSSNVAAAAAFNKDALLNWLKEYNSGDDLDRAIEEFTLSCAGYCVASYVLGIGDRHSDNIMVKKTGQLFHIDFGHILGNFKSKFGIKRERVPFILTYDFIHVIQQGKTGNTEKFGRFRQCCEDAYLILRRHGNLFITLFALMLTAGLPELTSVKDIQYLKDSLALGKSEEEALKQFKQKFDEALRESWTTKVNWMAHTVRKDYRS
p110β/p85α, sequence (P27986 whole entry partner): as the sequence (P27986 whole entry partner) above

| Structure (SMILES) | pIC50 (p110α/p85α; read-out: PI3K α In Vitro IC50) | pIC50 (p110γ; read-out: PI3K γ In Vitro IC50) | pIC50 (p110α/p85α; read-out: PI3K α IC50) | pIC50 (p110γ; read-out: PI3K γ IC50) | other results |
| --- | --- | --- | --- | --- | --- |
| COc1ncc(-c2ccc3ncc(C(=O)N4CCOCC4)n3c2)cc1NS(=O)(=O)c1ccccc1 [compound 420] | > 7.00 | > 6.00 | – | – | pIC50 (p110δ/p85α; read-out: PI3K δ In Vitro IC50): > 6.00 |
| Nc1nc2cc(-c3ccc4ncc(N5CCN(C(=O)C6(N)CC6)CC5)nc4c3)ccc2o1 [compound 226] | – | – | – | – | pIC50 (p110α/p85α; [1]): > 6.00; pIC50 (p110γ; [2]): > 5.00; pIC50 (p110δ/p85α; [3]): > 5.00 |
| O=C(c1cnc2ccc(-c3cccc(NS(=O)(=O)c4ccc(F)cc4F)c3)cn12)N1CCOCC1 [compound 454] | > 5.00 | > 5.00 | – | – | pIC50 (p110δ/p85α; read-out: PI3K δ In Vitro IC50): > 5.00 |
| CCN(CC)CCCn1cnc2ccc(-c3ccc4oc(N)nc4c3)cc2c1=O [compound 281] | – | – | – | – | pIC50 (p110α/p85α; [1]): > 6.00; pIC50 (p110δ/p85α; [3]): > 5.00 |
| Nc1nc2cc(-c3ccc4ncc(C#CC5CC5)n4c3)ccc2o1 [compound 39] | – | – | > 7.00 | > 7.00 | pIC50 (p110δ/p85α; read-out: PI3K δ IC50): > 7.00 |
| Nc1nc2cc(-c3ccc4nccc(-c5cccnc5)c4c3)ccc2o1 [compound 31] | – | – | > 7.00 | > 7.00 | pIC50 (p110δ/p85α; read-out: PI3K δ IC50): > 7.00 |
| Nc1nc2cc(-c3ccc4ncc(-c5cccnc5)n4c3)ccc2o1 [compound 37] | – | – | > 7.00 | > 7.00 | pIC50 (p110δ/p85α; read-out: PI3K δ IC50): > 7.00 |
| Nc1nc2cc(-c3ccc4ncc(C(=O)N5CC[C@@H](F)C5)n4c3)ccc2o1 [compound 475] | > 7.00 | > 7.00 | – | – | pIC50 (p110δ/p85α; read-out: PI3K δ In Vitro IC50): > 5.00 |
| C[C@H]1CN(c2cnc3ccc(-c4ccc5oc(N)nc5c4)cc3c2)CCN1 [compound 396] | – | – | – | – | pIC50 (p110α/p85α; [1]): > 7.00; pIC50 (p110β/p85α; [4]): > 7.00; pIC50 (p110γ; [2]): > 5.00 |
| Nc1nc2cc(-c3ccc4ncc(C(=O)N5CCn6cncc6C5)n4c3)ccc2o1 [compound 493] | > 7.00 | > 5.00 | – | – | pIC50 (p110β/p85α; read-out: PI3K β In Vitro IC50): > 6.00 |
| Nc1nc2cc(-c3ccc4ncc(C(=O)N5CC(N6CCC(F)(F)C6)C5)n4c3)ccc2o1 [compound 502] | > 7.00 | > 6.00 | – | – | pIC50 (p110δ/p85α; read-out: PI3K δ In Vitro IC50): > 5.00 |
| COCCn1cnc2ccc(-c3ccc4oc(N)nc4c3)cc2c1=O [compound 272] | – | – | – | – | pIC50 (p110α/p85α; [1]): > 6.00; pIC50 (p110β/p85α; [4]): > 5.00; pIC50 (p110γ; [2]): > 5.00 |
| CN1CCN(c2cnc3ccc(-c4ccc5sc(N)nc5c4)cc3n2)CC1 [compound 127] | – | – | > 6.00 | > 5.00 | pIC50 (p110β/p85α; read-out: PI3K β IC50): > 7.00 |
| Nc1nc2cc(-c3ccc4nccc(N5CCOCC5)c4c3)ccc2o1 [compound 28] | – | – | > 7.00 | > 7.00 | pIC50 (p110δ/p85α; read-out: PI3K δ IC50): > 6.00 |
| Nc1nc2cc(-c3ccc4ncc(C(=O)N5CCCCC5)n4c3)ccc2o1 [compound 196] | – | – | > 6.00 | > 5.00 | pIC50 (p110β/p85α; read-out: PI3K β IC50): > 5.00 |
| Nc1nc2cc(-c3ccc4ncn(C5CCNCC5)c(=O)c4c3)ccc2o1 [compound 75] | – | – | > 7.00 | > 5.00 | pIC50 (p110β/p85α; read-out: PI3K β IC50): > 5.00 |
| Nc1nc2cc(-c3ccc4ncnc(N5CCC(O)CC5)c4c3)ccc2o1 [compound 29] | – | – | > 7.00 | > 7.00 | pIC50 (p110δ/p85α; read-out: PI3K δ IC50): > 7.00 |
| Nc1nc2cc(-c3ccc4ncc(N5CCOCC5)n4n3)ccc2o1 [compound 57] | – | – | > 6.00 | > 5.00 | pIC50 (p110β/p85α; read-out: PI3K β IC50): > 6.00 |
| Nc1nc2cc(-c3ccc4ncc(C(=O)N5CCC(N6CCC(F)(F)C6)C5)n4c3)ccc2o1 (centres unmarked) [compound 500] | > 6.00 | > 5.00 | – | – | pIC50 (p110δ/p85α; read-out: PI3K δ In Vitro IC50): > 5.00 |
| Nc1nc2cc(-c3ccc4nccc(NCCN5CCOCC5)c4c3)ccc2o1 [compound 33] | – | – | > 7.00 | > 6.00 | pIC50 (p110δ/p85α; read-out: PI3K δ IC50): > 6.00 |
| Nc1nc2cc(-c3ccc4ncc(C(=O)N5CC6(C5)OCCO6)n4c3)ccc2o1 [compound 494] | > 7.00 | > 6.00 | – | – | pIC50 (p110β/p85α; read-out: PI3K β In Vitro IC50): > 5.00 |
| CN1CCN(C(=O)c2cnc3ccc(-c4ccc5nc(N)oc5c4)cn23)CC1 [compound 145] | – | – | > 6.00 | > 5.00 | pIC50 (p110β/p85α; read-out: PI3K β IC50): > 5.00 |

| Structure (SMILES) | pIC50 (p110α/p85α; read-out: PI3K α In Vitro IC50) | pIC50 (p110γ; read-out: PI3K γ In Vitro IC50) | pIC50 (p110α/p85α; read-out: PI3K α IC50) | pIC50 (p110γ; read-out: PI3K γ IC50) | other results |
| --- | --- | --- | --- | --- | --- |
| C[C@H]1CCCN1C(=O)c1cnc2ccc(-c3ccc4oc(N)nc4c3)cn12 [compound 482] | > 7.00 | > 6.00 | – | – | pIC50 (p110δ/p85α; read-out: PI3K δ In Vitro IC50): > 5.00 |
| Nc1nc2cc(-c3ccc4ncc(C(=O)N5CCOCC5)n4n3)ccc2o1 [compound 105] | – | – | > 6.00 | > 6.00 | pIC50 (p110β/p85α; read-out: PI3K β IC50): > 5.00 |
| Nc1nc2cc(-c3ccc4ncc(C(=O)N(CCO)CCO)n4c3)ccc2o1 [compound 316] | – | – | – | – | pIC50 (p110α/p85α; [1]): > 6.00; pIC50 (p110β/p85α; [4]): > 5.00; pIC50 (p110γ; [2]): > 5.00 |
| Nc1nc2cc(-c3ccc4ncc(-c5ccccn5)nc4c3)ccc2o1 [compound 195] | – | – | > 6.00 | > 7.00 | pIC50 (p110β/p85α; read-out: PI3K β IC50): > 5.00 |
| Nc1nc2cc(-c3ccc4ncc(C(=O)N5CCOCC5)n4c3)cnc2o1 [compound 400] | > 7.00 | > 5.00 | – | – | pIC50 (p110β/p85α; read-out: PI3K β In Vitro IC50): > 5.00 |
| CN1CCCN(c2cnc3ccc(-c4ccc5oc(N)nc5c4)cc3n2)CC1 [compound 136] | – | – | > 6.00 | > 5.00 | pIC50 (p110β/p85α; read-out: PI3K β IC50): > 6.00 |
| Nc1nc2cc(-c3ccc4ncc(C(=O)Nc5cccnc5)n4c3)ccc2o1 [compound 190] | – | – | > 7.00 | > 7.00 | pIC50 (p110δ/p85α; read-out: PI3K δ IC50): > 6.00 |
| Nc1nc2cc(-c3ccc4ncc(C(=O)N5CC[C@@H](n6cccn6)C5)n4c3)ccc2o1 [compound 477] | > 7.00 | > 6.00 | – | – | pIC50 (p110δ/p85α; read-out: PI3K δ In Vitro IC50): > 5.00 |
| Nc1nc2cc(-c3ccc4sc(N)nc4c3)cc(F)c2o1 [compound 437] | > 5.00 | > 6.00 | – | – | pIC50 (p110β/p85α; read-out: PI3K β In Vitro IC50): > 6.00 |
| Nc1nc2cc(-c3ccc4nnc(-c5ccncc5)n4c3)ccc2o1 [compound 229] | – | – | – | – | pIC50 (p110α/p85α; [1]): > 6.00; pIC50 (p110β/p85α; [4]): > 6.00; pIC50 (p110γ; [2]): > 5.00 |
| Nc1nc2ccc(-c3ccc4nc(N)sc4c3)cc2o1 [compound 243] | – | – | – | – | pIC50 (p110α/p85α; [1]): > 6.00; pIC50 (p110β/p85α; [4]): > 7.00; pIC50 (p110γ; [2]): > 7.00 |
| Nc1nc2cc(-c3ccc4ncc(C(=O)N5CC(F)C5)n4c3)ccc2o1 [compound 468] | > 7.00 | > 7.00 | – | – | pIC50 (p110β/p85α; read-out: PI3K β In Vitro IC50): > 5.00 |
| O=C(c1cnc2ccc(-c3cncc(NS(=O)(=O)c4ccccc4)c3)cn12)N1CCOCC1 [compound 424] | > 6.00 | > 6.00 | – | – | pIC50 (p110δ/p85α; read-out: PI3K δ In Vitro IC50): > 5.00 |
| Nc1nc2cc(-c3ccc4nccc(CCN5CCOCC5)c4c3)ccc2o1 [compound 27] | – | – | > 6.00 | > 7.00 | pIC50 (p110δ/p85α; read-out: PI3K δ IC50): > 5.00 |
| CN1CCN(C(=O)c2cnn3ccc(-c4ccc5oc(N)nc5c4)cc23)CC1 [compound 380] | – | – | – | – | pIC50 (p110α/p85α; [1]): > 6.00; pIC50 (p110β/p85α; [4]): > 5.00; pIC50 (p110γ; [2]): > 5.00 |
| Cc1cc(-c2ccc3nc(N)oc3c2)cn2c(C(=O)N3CCOCC3)cnc12 [compound 449] | > 6.00 | > 7.00 | – | – | pIC50 (p110β/p85α; read-out: PI3K β In Vitro IC50): > 6.00 |
| Nc1nc2cc(-c3ccn4ncc(C(=O)N5CCOCC5)c4c3)ccc2o1 [compound 347] | – | – | – | – | pIC50 (p110α/p85α; [1]): > 6.00; pIC50 (p110β/p85α; [4]): > 5.00; pIC50 (p110γ; [2]): > 6.00 |
| Nc1nc2cc(-c3ccn4ncc(C(=O)N5CCCC5)c4c3)ccc2o1 [compound 346] | – | – | – | – | pIC50 (p110α/p85α; [1]): > 7.00; pIC50 (p110β/p85α; [4]): > 5.00; pIC50 (p110γ; [2]): > 6.00 |
| C[C@H]1CN(c2cnc3ccc(-c4ccc5nc(N)oc5c4)cc3n2)CCN1 [compound 309] | – | – | – | – | pIC50 (p110α/p85α; [1]): > 6.00; pIC50 (p110β/p85α; [4]): > 6.00; pIC50 (p110γ; [2]): > 5.00 |
| CC(=O)Nc1n[nH]c2cc(-c3ccc4oc(N)nc4c3)ccc12 [compound 430] | > 5.00 | > 5.00 | – | – | pIC50 (p110β/p85α; read-out: PI3K β In Vitro IC50): > 5.00 |
| Nc1nc2cc(-c3ccc4ncc(C(=O)N5CC6CCC(C5)O6)n4c3)ccc2o1 [compound 504] | > 6.00 | > 7.00 | – | – | pIC50 (p110β/p85α; read-out: PI3K β In Vitro IC50): > 5.00 |
| Nc1nc2cc(-c3ccc4ncc(C(=O)N5CCOCC5)n4c3)ccc2s1 [compound 126] | – | – | > 6.00 | > 6.00 | pIC50 (p110β/p85α; read-out: PI3K β IC50): > 5.00 |
